This note sets out measurements from patent US12622893B2, “Alpha2 adrenergic agonist codrugs conjugated with muscarinic agonist drugs” (ADS THERAPEUTICS LLC, priority 2021, dated 2026).

The structures appear in SMILES notation.

The nature of data set [1]: In vitro metabolic stability in rabbit cornea homogenates. The note with it: 1 μM test compound, 0.3 mg/mL corneal protein homogenate, pH=6.0, 37° C.; for Rate of formation Metabolite 1: metabolite 1 = pilocarpine; for Rate of formation Metabolite 2: metabolite 2 as named under each value (Dexmedetomidine metabolite, brimonidine metabolite or brimonidine). Format: in vitro ADME, Dutch Belted rabbits. The protocol:
Dutch Belted rabbits will be euthanized with an overdose of sodium pentobarbital. The corneas will be collected and homogenized in ice-cold potassium chloride solution (pH=7.4). The homogenate will be centrifuged at 755×g for 30 min at 4° C. and aliquots of the supernatant will be stored at or below −70° C. until metabolism experiments will be conducted. Prior to storing the homogenates, an aliquot will be removed for the determination of protein concentrations by calculating the […] using a spectrophotometer. All metabolic stability experiments will be performed in triplicate in 96-well plate format. The final incubation mixture will contain 1 μM test compound, 0.3 mg/mL corneal protein homogenate in a final volume of 0.5 mL 0.1 M potassium phosphate buffer (pH=6.0). The final percentage of solvent in the incubation will be less than 1.0% to prevent inhibition of enzymatic activity. Following a pre-incubation at 37° C., test article will be added to initiate the reaction. At designated time points (typically less than 60 minutes to capture the linear range of metabolite formation), 0.05 mL aliquots will be removed from the incubation mixtures using a clean pipet tip and immediately placed in organic solvent to stop any esterase activity. The hydrolysis to the metabolites will be confirmed to be due to esterase activity and not chemical stability. The samples will be analyzed by liquid chromatography with mass spectrometry (LC-MS/MS) detection to determine the metabolite concentrations resulting from the metabolism of the hybrid compounds. Internal standards were used to compensate for variability from sample processing, chromatographic elution, mass spectrometer response and ion suppression by matrix components.

In data set [2] the test system is rabbit pupil. The data set can be described thus: In vivo pharmacology study of measuring pupil size (Example 28). Particulars: FIG. 3; for efficacy of pupil constriction compared with positive control 1: positive control 1 is 1.25% Pilocarpine HCl; for potency of pupil constriction compared with other co-drugs: all co-drugs at 1%. Also noted: species or system Dutch belted rabbits. The protocol:
Three (3) female Dutch belted rabbits were randomly assigned to each group by Provantis or Excel based on body weight. Each animal was dosed 40 μL of testing article (see Table 5 below) to both eyes. The pupil sizes of both eyes were measured at baseline (30 minutes before dosing), 0.5 h, 1 h, 2 h, 3 h, 4 h, 6 h, 8 h, 24 h after dosing. The pupil size measurement data were analyzed for efficacy of pupil constriction. Co-drug compounds are co-drugs of pilocarpine-alpha adrenergic agonists as described above. The vehicle used to dissolve Co-drug compounds is the same as the vehicle used in the negative control in group 1. Positive control 1 is 1.25% Pilocarpine HCl in an aqueous buffer. Positive control 2 is 3.0% Carbachol and 0.2% Brimonidine in an aqueous buffer. This control can result in a large pupil constrictive effect.

Data set [3] can be described thus: In vivo ocular pharmacokinetics following a single topical ophthalmic administration. On the set-up: species or system New Zealand White Rabbits. The note with it: 0.5% (w/v) solution; for Conc. of Co-drug in Cornea Tissue: both eyes. How it is done: Rabbits will be dosed once by ocular instillation to both eyes with each compound formulated in a 0.5% (w/v) solution. At 0.25, 0.5, 1, 2, 6 and 10 hours post dose, cornea, aqueous humor, conjunctiva and eyelid margin will be collected and stored at approximately −70° C. until bioanalysis. Ocular tissue samples will be analyzed by liquid chromatography with mass spectrometry detection to determine the parent and metabolite (pilocarpine and brimonidine) concentrations resulting from the metabolism of ester linked co-drugs. Internal standards will be used to compensate for variability from sample processing, chromatographic elution, mass spectrometer response and ion suppression by matrix components. […]

Data set [4] deals with rabbit pupil. In words: In vivo pharmacology study of measuring pupil size (Example 27). On the set-up: species or system Dutch belted rabbits. The note with it: FIG. 2; 0.5% and 2%. How it is done: Three (3) female Dutch belted rabbits were randomly assigned to each group by Provantis or Excel based on body weight. Each animal was dosed 40 μL of testing article (see Table 4 below) to both eyes. The pupil sizes of both eyes were measured at baseline (30 minutes before dosing), 0.5 h, 1 h, 2 h, 3 h, 4 h, 6 h, 8 h after dosing. The pupil size measurement data were analyzed for efficacy of pupil constriction. CBT compounds tested are co-drugs of pilocarpine-alpha adrenergic agonists as described above. The vehicle used to dissolve CBT compounds is the same as the vehicle used in the negative control in group 1. Positive control 1 is 1.25% Pilocarpine HCl in an aqueous buffer. Positive control 2 is 3.0% Carbachol and 0.2% Brimonidine in an aqueous buffer. This control can result in a large pupil constrictive effect.

Where [5] appears, read: 0.25 hr after dosing the co-drug.
Setting [6] is: 0.5 hr after dosing the co-drug.

Turning to `CC[C@H](C(=O)OCc1cccc([C@H](C)c2c[nH]cn2)c1C)[C@H](CO)Cc1cncn1C` [Compound-1, 3-((S)-1-(1H-imidazol-4-yl)ethyl)-2-methylbenzyl (2S,3R)-2-ethyl-4-hydroxy-3-((1-methyl-1H-imidazol-5-yl)methyl)butanoate], in data set [1], the “Rate of formation Metabolite 1” value is listed as 5.56 ± 0.43 nM/min/mg and the “Rate of formation Metabolite 2” value is given as 3.52 ± 0.23 nM/min/mg.

`CC[C@H](C(=O)N1CCN/C1=N/c1ccc2nccnc2c1Br)[C@H](COC(C)=O)Cc1cncn1C` [Compound-16, (2R,3S)-3-((Z)-2-((5-bromoquinoxalin-6-yl)imino)imidazolidine-1-carbonyl)-2-((1-methyl-1H-imidazol-5-yl)methyl)pentyl acetate]: in data set [2], the “efficacy of pupil constriction compared with positive control 1” value is reported as “efficacies similar to that of positive control 1”; the “potency of pupil constriction compared with other co-drugs” value was “better potency than Compound-15 and Compound-19”.

Turning to `CC[C@H](C(=O)OCOC(=O)N1CCN=C1Nc1ccc2[nH]cnc2c1Br)[C@H](CO)Cc1cncn1C` [compound 3, (((2S,3R)-2-ethyl-4-hydroxy-3-((1-methyl-1H-imidazol-5-yl)methyl)butanoyl)oxy)methyl 2-((4-bromo-1H-benzo[d]imidazol-5-yl)amino)-4,5-dihydro-1H-imidazole-1-carboxylate], in data set [1], the “Rate of formation Metabolite 1” value was 8.86 ± 0.13 nM/min/mg and the “Rate of formation Metabolite 2” value came to 1.23 ± 0.03 nM/min/mg.

Turning to `CC[C@H](C(=O)OCOC(=O)N1CCN=C1Nc1ccc2nccnc2c1Br)[C@H](COC(C)=O)Cc1cncn1C` [compound 6, (((2S,3R)-4-acetoxy-2-ethyl-3-((1-methyl-1H-imidazol-5-yl)methyl)butanoyl)oxy)methyl 2-((5-bromoquinoxalin-6-yl)amino)-4,5-dihydro-1H-imidazole-1-carboxylate], the “Conc. of Brimonidine (Metabolite 2) in Cornea Tissue” value in data set [3] (setting [5]) worked out at 24 ± 12 ng/mL; in data set [3] (setting [6]), 78 ± 54 ng/mL; in data set [3] (1 hr after dosing the co-drug), 98 ± 23 ng/mL; in data set [3] (2 hr after dosing the co-drug), 139 ± 37 ng/mL; in data set [3] (6 hr after dosing the co-drug), 339 ± 134 ng/mL; in data set [3] (10 hr after dosing the co-drug), 539 ± 97 ng/mL. Moreover, the “Conc. of Pilocarpine (Metabolite 1) in Cornea Tissue” value worked out at 39 ± 37 ng/mL in data set [3] (setting [5]); 139 ± 78 ng/mL in data set [3] (setting [6]); 379 ± 120 ng/mL in data set [3] (1 hr after dosing the co-drug); 539 ± 30 ng/mL in data set [3] (2 hr after dosing the co-drug); 754 ± 127 ng/mL in data set [3] (6 hr after dosing the co-drug); 867 ± 37 ng/mL in data set [3] (10 hr after dosing the co-drug). The “Conc. of Co-drug in Cornea Tissue” value in data set [3] (0.25 hr post dose) was 7238 ± 345 ng/mL; in data set [3] (0.5 hr post dose), 987 ± 245 ng/mL; in data set [3] (1 hr post dose), 234 ± 33 ng/mL; in data set [3] (2 hr post dose), 95 ± 19 ng/mL; in data set [3] (6 hr post dose), 39 ± 37 ng/mL; in data set [3] (10 hr post dose) it was 12 ± 3 ng/mL. The “Rate of formation Metabolite 1” value in data set [1] is 7.43 ± 0.27 nM/min/mg. For the same compound, in data set [1], the “Rate of formation Metabolite 2” value came out at 1.98 ± 0.09 nM/min/mg.

Consider `CC[C@H](C(=O)N1CCN/C1=N/c1ccc2nccnc2c1Br)[C@H](COC(=O)C(C)(C)C)Cc1cncn1C` [Compound-20, (2R,3S)-3-((Z)-2-((5-bromoquinoxalin-6-yl)imino)imidazolidine-1-carbonyl)-2-((1-methyl-1H-imidazol-5-yl)methyl)pentyl pivalate], for which, in data set [2], the “efficacy of pupil constriction compared with positive control 1” value is given as “efficacies similar to that of positive control 1”; the “potency of pupil constriction compared with other co-drugs” value is “better potency than Compound-15 and Compound-19”.

Take `CC[C@H](C(=O)OCOC(=O)N1CCN=C1Nc1ccc2[nH]cnc2c1Br)[C@H](COC(C)=O)Cc1cncn1C` [Compound-4, (((2S,3R)-4-acetoxy-2-ethyl-3-((1-methyl-1H-imidazol-5-yl)methyl)butanoyl)oxy)methyl 2-((4-bromo-1H-benzo[d]imidazol-5-yl)amino)-4,5-dihydro-1H-imidazole-1-carboxylate]: in data set [1], the “Rate of formation Metabolite 1” value turned out to be 5.87 ± 0.97 nM/min/mg and the “Rate of formation Metabolite 2” value worked out at 6.34 ± 0.07 nM/min/mg.

As for `CC[C@H](C(=O)OCOC(=O)N1CCN=C1Nc1ccc2nccnc2c1Br)[C@H](CO)Cc1cncn1C` [compound 5, (((2S,3R)-2-ethyl-4-hydroxy-3-((1-methyl-1H-imidazol-5-yl)methyl)butanoyl)oxy)methyl 2-((5-bromoquinoxalin-6-yl)amino)-4,5-dihydro-1H-imidazole-1-carboxylate], in data set [1], the “Rate of formation Metabolite 1” value was found to be 2.13 ± 0.24 nM/min/mg and the “Rate of formation Metabolite 2” value is given as 4.98 ± 0.34 nM/min/mg.

On to `CC[C@H](C(=O)OCc1cccc([C@H](C)c2c[nH]cn2)c1C)[C@H](COC(C)=O)Cc1cncn1C` [Compound-2, 3-((S)-1-(1H-imidazol-4-yl)ethyl)-2-methylbenzyl (2S,3R)-4-acetoxy-2-ethyl-3-((1-methyl-1H-imidazol-5-yl)methyl)butanoate], for which the “dose relation of pupil constriction” value in data set [4] is “dose-related effects”. In data set [1], the “Rate of formation Metabolite 1” value is given as 4.34 ± 0.11 nM/min/mg and the “Rate of formation Metabolite 2” value is reported as 2.87 ± 0.78 nM/min/mg.
